How the values were obtained:
[1] = Dissolution study as a function of the pH value of water; format: physicochemical; conditions: 150 g in 900 ml of water
Description: The solubility of the mannitol powder was then studied in the following three types of non-carbonated commercial waters: • Sangemini: pH at source 6.2; • Antica Fonte Boario: pH at source 7.0; • Panna Toscana: pH at source 8.0.

[2] = Bulk density of the powder; format: physicochemical; conditions: after passing through drum centrifugal sieve shaker, mesh 3 mm clear span; measured in the laboratory
Procedure: As regards the bulk density outlined above, in particular the poured bulk density, such parameter is measured according to the European Pharmacopoeia reference standard (Ph. Eur.), current edition 2.2.42, in force at the priority date of this patent application. In the context of the present invention, the expression ‘bulk’ implies that the powder density value is calculated in a manner formally analogous to an absolute density (such as for a solid body or for a liquid). However, since a powder has empty inter-particle spaces, the total volume occupied by the powder (i.e. its outer bulk), thus including the inter-particle spaces between the various particles, should be taken into account when evaluating bulk density. More precisely, according to the aforementioned regulation, a 100 ml class A graduated flask is filled and brought to volume with the powder particles, after which the bulk density is calculated as the ratio between the weight of the powder contained in the flask and the volume (100 ml) occupied by that weight of the powder particles.

time for complete dissolution ([1]; weakly acidic or neutral pH): more than 6 minutes
time for complete dissolution relative to weakly acidic or neutral pH ([1]; weakly basic pH): substantially half as much
transient density [2]: about 0.73 g/ml
Compound: OC[C@@H](O)[C@@H](O)[C@H](O)[C@H](O)CO [mannitol]

— patent US20220117845A1, “COMPOSITION AND CONTAINER, KIT, METHOD OF USE” (NTC S.R.L., priority 2019, published 2022)
